In test [1] the test system is patients derived xenografts (PDX) grown as pooled organoids. Nature of the test: Cell cycle inhibition rates from GENEVA in pooled PDX. It is filed as cell-based, human. The settings on record: PDX with known KRAS.G12C mutations; in vivo and ex vivo systems. From the text:
Using growth-rate balanced heterogeneous cell pools adjusted for long time-course drug treatment, pools were created from four human patient-derived xenograft (PDX) models and implanted as a pooled tumor in a flank xenograft mouse model. The pooled tumors were drugged in mice by oral dosing by gavage for fourteen days with the molecule ARS-1620. After the treatment interval, tumors were harvested from mice, and single-cell RNA sequencing, genetic demultiplexing (as illustrated in Example 2), and sample hashing using barcoded antibodies was performed. Sufficient numbers of cells were observed from each PDX genetic background and drug treatment condition (FIG. 2C,D) for inference of drug phenotype and drug changes to the transcriptome. Pools from four PDX models were created for implantation for a fourteen day drug treatment in a 3D Organoid model system. […]
Cell Cycle was calculated by regressing whole transcriptome readouts and weighting according to specified genes of interest related to different cell cycle states. Cells were assigned into G1, S, and G2/M. The cell cycle ratio was then calculated as fraction of cells per population: […]
yielded a function where the slope was determined as the cell cycle inhibition rate, reflecting an alternative way to measure phenotype derived solely from transcriptome drug perturbation data over a long time course.

The next test deals with lipid peroxidation. Nature of the test: Lipid peroxidation live cell probe dose curve and survival kinetics. It is filed as cell-based. From the text:
FIG. 7B plots gene expression of anti-ferroptotic genes for each cell line in response to increasing ARS1620 dosage. […] Lipid peroxidation and survival kinetics cross over around IC50 in all compounds indicating ARS1620 performs as a ferroptosis inducing agent.
Among this group of genes were FTH1 and FTL, the two components of the Ferritin Complex, which is responsible for sequestration of labile free iron. Using a lipid peroxidation live cell probe, lipid peroxidation—one of the hallmark phenotypes of ferroptosis—was measured in response to ARS-1620 treatment.

The next test has as its system KRAS.G12V cell line H441. Nature of the test: Lipid peroxidation by KRAS inhibitors in non-KRAS.G12C line. The test is classed as cell-based, human. The method, then: FIG. 7B plots gene expression of anti-ferroptotic genes for each cell line in response to increasing ARS1620 dosage.
Using a lipid peroxidation live cell probe, lipid peroxidation—one of the hallmark phenotypes of ferroptosis—was measured in response to ARS-1620 treatment.

In test [2] the test system is KRAS.G12C cell lines in a cell pool. Nature of the test: GENEVA pool gene set expression after drug, in vivo. The arrangement: species or system mouse. The conditions noted are these: post-drug treatment. The method, then:
2 mL of Matrigel Basement Membrane reagent was added to the GENEVA pool prepared by growth rate balancing for a final concentration of 20M/mL. One hundred microliters of this solution was injected into NSG mice in a flank xenograft injection. Twenty-four hours later, mice harboring GENEVA tumors were drugged with the drug compound in a vehicle solution of 5% DMSO, 95% Labrasol. Mice were dosed by oral gavage four fourteen days with five days on, two days off. On the fourteenth day, mice were sacrificed, tumors harvested by homogenization with surgical shears and resuspended in 5 mg/mL Liberase™ Cell Dissociation Reagent in 1:1 DMEM: F12 cell media, DNAse I (10 U/uL). Tumors were incubated in a 37° C. incubator with shaking at 600 RPMs for 45 minutes for enzymatic dissociation and then spun down at 800 g for 5 minutes at 4° C. Dissociated tumors were resuspended in 100 uL 1×PBS.
The GENEVA datasets were compared where GENEVA pools were drugged with the KRAS.G12C inhibitor ARS1620, conducted both in vitro and in vivo. Specifically, the in vitro data were compared against the in vivo data to look for differences and similarities attributable to the context of the model systems used. […]
For in vivo and in vitro datasets, we combined the median z score results determined in Example 8 and t-test results, respectively, were combined on a paired geneset by geneset basis. […]

For test [3] the test system is unchanged. Nature of the test: GENEVA pool gene set expression after drug, in vitro. The test is classed as cell-based, human. The settings on record: post-drug treatment. From the text:
The GENEVA datasets were compared where GENEVA pools were drugged with the KRAS.G12C inhibitor ARS1620, conducted both in vitro and in vivo. Specifically, the in vitro data were compared against the in vivo data to look for differences and similarities attributable to the context of the model systems used. […] As a validation study, a combination therapy multi-arm in vivo mouse study was designed to test the efficacy of an EMT inhibitor, Galunisertib in combination with ARS1620.
For in vivo and in vitro datasets, we combined the median z score results determined in Example 8 and t-test results, respectively, were combined on a paired geneset by geneset basis. The combined zscore results table from both in vivo and in vitro was then used to calculate an “in vivo Specificity Score” as follows:
For each geneset, “in vivo Specificity Score”=[(in vivo median zscore)−(in vitro median zscore)]/mean([log 10 (in vivo pvalue), log 10 (in vitro pvalue)]

The subject of test [4] is tumors from KRAS.G12C, EML4-ALK, and TH21 lung cancer patients. Nature of the test: GENEVA pools of PDX models, relative survival by genotype. It is filed as in vivo, human. The settings on record: PDX GENEVA pool. The source says:
Higher confidence metrics are noted in the dotted line, or Noise Corrected Algorithm results.
GENEVA pools of PDX models were created for a long term drug treatment assay. Tumors were implanted in vivo and in organoids, and tumors from KRAS.G12C, EML4-ALK, and TH21 lung cancer patients were drugged in GENEVA pools. Significant drug sensitivity was found in EML4-ALK patient greater than sensitivity of KRAS.G12C mutant tumors indicating EML4-ALK patient tumors would respond to a KRAS.G12C inhibitor (FIG. 9B).

As for `C=CC(=O)N1CCN(c2ncnc3c(F)c(-c4c(O)cccc4F)c(Cl)cc23)CC1` [ARS1620], in test [1], the “drug sensitivity by estimation of cell cycle inhibition rates” value is “shown to be sensitive to the compound (patients 877 and 233)”. Also, in the test on lipid peroxidation (48 h, fluorescent lipid peroxidation sensor), the “lipid peroxidation dose response” value is on record as “induced lipid peroxidation in a dose dependent fashion”. In addition, the “cross-over of survival and normalized lipid peroxidation curves” value with lipid peroxidation (dose curves) was “crossed over around the IC50 survival value”. Moreover, the lipid peroxidation entry in the test on KRAS.G12V cell line H441 is reported as “this effect was significantly muted”. The “endothelial-mesenchymal transition hallmark gene expression signature” value is “increased in vivo” in test [2] and “showed no difference in vitro” in test [3]. The “relative survival of genotype under treatment or vehicle” value in test [4] is recorded as “EML4-ALK as the most drug sensitive tumor type”.

The record behind these values is US20250003953A1, “Methods and Model Systems for Assessing Therapeutic Properties of Candidate Agents and Related Computer Readable Media and Systems” (The Regents of the University of California, priority 2021, published 2025).
